Measurements: ChEMBL document CHEMBL3886997, “Biaryl- or heterocyclic biaryl-substituted cyclohexene derivative compounds as CETP inhibitors” (2016)

Molecular target: T1, Cholesteryl ester transfer protein (Homo sapiens, UniProt P11597)
T1 sequence (P11597 whole entry): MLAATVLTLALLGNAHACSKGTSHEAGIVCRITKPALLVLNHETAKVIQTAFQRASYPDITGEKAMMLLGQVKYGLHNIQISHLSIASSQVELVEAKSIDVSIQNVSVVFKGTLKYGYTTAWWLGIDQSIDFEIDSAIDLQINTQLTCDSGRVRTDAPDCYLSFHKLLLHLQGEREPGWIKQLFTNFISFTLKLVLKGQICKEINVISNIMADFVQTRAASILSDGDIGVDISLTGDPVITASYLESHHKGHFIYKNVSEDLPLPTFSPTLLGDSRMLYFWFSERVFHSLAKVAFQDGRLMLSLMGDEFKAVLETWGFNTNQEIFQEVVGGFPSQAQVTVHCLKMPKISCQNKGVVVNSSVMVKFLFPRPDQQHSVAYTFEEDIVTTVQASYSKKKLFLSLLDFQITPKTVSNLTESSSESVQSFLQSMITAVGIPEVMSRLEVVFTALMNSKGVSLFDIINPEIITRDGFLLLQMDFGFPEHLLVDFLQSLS
Assay: Cholesteryl Ester Transfer Assay: As a protein source for cholesteryl ester transfer, plasma from healthy persons was used, and as a cholesteryl ester receptor, LDL from healthy persons was used. Samples were treated with each test compound to final concentrations of 16, 80, 400, 2000 and 10000 nM and analyzed in duplicate. For the cholesteryl ester transfer test, 20 μl of plasma, 50 μl of LDL (0.25 mg/ml) and 50 μl of rHDL-agarose (0.25 mg/ml) were added, and a solution containing a test compound was added, followed by reaction at 37° C. Then, centrifugation was performed at 4° C. for 3 minutes to stop the reaction, and 150 μl of the supernatant was taken and transferred to a 96-well plate for radioactivity measurement, and the radioactivity of the plate was measured with a beta-ray detector.
Type: cell-free

Row | SMILES | IC50 [nM]
1 | COc1cc(C(F)(F)F)c(-c2ccc(C(=O)O)cc2F)cc1C1=C(CN2C(=O)O[C@H](c3cc(C(F)(F)F)cc(C(F)(F)F)c3)[C@@H]2C)CC(C)(C)CC1 | 9.1
2 | COc1cc(C(F)(F)F)c(-c2ccc(C(=O)O)cc2Cl)cc1C1=C(CN2C(=O)O[C@H](c3cc(C(F)(F)F)cc(C(F)(F)F)c3)[C@@H]2C)CC(C)(C)CC1 | 12.3
